# Where a SMILES comes first, the peptide text is derived from it. [ ]: non-standard residue; d: D form. Sar = CNCC(=O)O
# Tests used:
# peptide transporters = test: [3H]-GlySar cellular uptake in MDCK-MDR1 cells; assay type: cell-based; conditions: DPBS pH 7.4, 37 °C
# MDCK-WT cells = test: Cytotoxicity by LDH assay; assay type: cell-based
# [1] = Aqueous solubility studies
compound,measurement,setting,value
CN(CC(=O)O)C(=O)CN [Gly-Sar] (H-Gly-[Sar]-OH),[3H]-GlySar uptake in the presence of compound (percentage of control),peptide transporters; 1 mM,40%
same,[3H]-GlySar uptake in the presence of compound (percentage of control),peptide transporters; 2 mM,30%
"C[C@]12C=CC(=O)C=C1CC[C@@H]1[C@@H]2[C@@H](O)C[C@@]2(C)[C@H]1CC[C@]2(O)C(=O)CO [prednisolone, Prednisolone]",Cytotoxic effects (LDH release),"MDCK-WT cells; 5–250 µM, 4 h",did not generate any cytotoxic effects
same,[3H]-GlySar uptake in the presence of compound (percentage of control),peptide transporters; 100 µM,No significant inhibition
same,solubility at 4 h,[1],0.31 ± 0.03 mg/mL
Triton x-100,Cytotoxicity (LDH release),"MDCK-WT cells; 1%, positive control",displayed significant cytotoxicity
same,Increase in absorbance (LDH) versus negative control,"MDCK-WT cells; 1%, positive control",About 5 fold
